Data reported in patent US10821195B2, “Compositions for therapeutics, targeted PET imaging and methods of their use” (Memorial Sloan Kettering Cancer Center, priority 2015, dated 2020).

Test: Stability of ^89Zr complexes in human serum at 37° C. for 7 d (ITLC, SEC)
Conditions: ^89Zr-ligand complex, human serum, 7 d, ITLC
Protocol: Seven day old samples of the Zr-ligand complexes were run down a size exclusion column to differentiate protein and ligand.
Serum stability and immunoreactivity of ^89Zr-complexes were evaluated. To determine the stability in serum, ^89Zr-complexes were incubated in human serum at 37° C. for 7 d. The percentage of intact species was monitored by ITLC (Table 9).
^89Zr-ligand and ^89Zr-ligand-antibody complexes were prepared according to the radiolabeling protocol as described above. For each ^89Zr complex, samples were made consisting of 900 μL human serum and 100 μL of the ^89Zr species and were placed in a heat block at 37° C. with agitation. Samples were monitored using radio-TLC before being added to the serum and then after 1 week of incubation. The stability of the complexes was measured as the percentage of ^89Zr that was retained at the origin of the ITLC strip and therefore still intact.

CC(=O)N(O)CCCCCNC(=O)CCC(=O)N(O)CCCCCNC(=O)CCC(=O)N(O)CCCCCNC(=S)Nc1ccc(N=C=S)cc1 (89Zr complex, metal not drawn) [p-SCN-Bn-DFO]
percentage of intact species, Ligand Only: 97.7±0.2%
